These results are taken from publication PMC8626775, “Anti-schistosomal activities of quinoxaline-containing compounds: From hit identification to lead optimisation” (European Journal of Medicinal Chemistry, 2021).

Data set [1] relates to S. mansoni schistosomula. In words: S. mansoni schistosomula high-throughput phenotype and motility screen (Roboworm), 72 h. It counts as cell-based, Schistosoma mansoni. In outline: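 Newly transformed schistosomula (S. mansoni PR-1, mechanically transformed cercariae), 120 per well, exposed to compounds at a single concentration or two-fold titrations for 72 h at 37 °C, 5% CO2.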

The subject of data set [2] is S. mansoni adult worms. Kind of data set: S. mansoni adult worm motility screen (WormassayGP2), 72 h. The format is cell-based, Schistosoma mansoni. Put shortly:
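Seven-week adult S. mansoni worms, perfused from infected mice, were exposed in duplicate (1–3 pairs/well) to […] compound in 0.5% DMSO for 72 h at 37 °C, 5% CO2. Motility was scored by image-based WormassayGP2, and eggs were counted afterwards.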

The nature of data set [3]: HepG2 MTT cytotoxicity assay. The note with it: human, HepG2 cells. The method, then: Initially the cells were handled under sterile conditions and grown at 37 °C in a humidified atmosphere containing 5% CO2. Cytotoxicity was evaluated by way of a 3-(4, 5- dimethylthiazol-2-yl)-2,5-diphenyl tetrazolium bromide (MTT) assay as previously described. The cells were counted in a dual chamber counting slide using the BIORAD TC-10 Automated cell counter, seeded in a 96-well plate (Fisher Scientific, Loughborough, UK) at a density of 2 × 10^4 cells/well and incubated in an atmosphere of 5% CO2 at 37 °C. […] The absorbance readings (at 570 nm) of the soluble formazan crystals were recorded using PolarStar Omega plate reader (BMG-Labtech). […] The latter was used to calculate the selectivity index (SI) of the compounds presented herein.
In general terms: Tetrazolium dyes change colour on reduction, which living cells bring about.

The subject of data set [4] is S. mansoni. Also noted: method as in PMID 24416463. The note with it: cited from earlier work.
Data set [5] concerns S. mansoni. On the set-up: method as in PMID 24416463. The note with it: cited from earlier work. The source holds these as a separate data set.

pEC50: −log10 of the molar value. Where two headings read alike, the source gives them in different places.

Broadly, the EC50 is the midpoint of the concentration-response curve. For orientation: CC50 means the concentration at which the toxic effect on the cells reaches its halfway point. The low end stands for harm at low concentration, the high end for better tolerance by the cells. Regarding `O=[N+]([O-])c1ccc2nc(Nc3ccccc3)c(Nc3ccccc3)nc2c1` [Compound 19], the “Activity on schistosomula in the primary screen at 10 μM” value in data set [1] (10 μM, 72 h) was “retained activity”. Besides, the EC50 in data set [1] (Schistosoma mansoni, 72 h, Table 1, 72 h, two dose response titrations (0.313–10 μM), 95% CI in brackets, read-out: Activity on schistosomula (EC50, μM - 72 h) Motility) turned out to be 1.35 µM; in data set [1] (Schistosoma mansoni, 72 h, Table 1, 72 h, two dose response titrations (0.313–10 μM), 95% CI in brackets, read-out: Activity on schistosomula (EC50, μM - 72 h) Phenotype), 1.89 µM; in data set [1] (Schistosoma mansoni, 72 h, Table 1, mean of phenotype and motility EC50, 72 h, read-out: Activity on schistosomula (EC50, μM - 72 h) Average), 1.62 µM; in data set [1] (Schistosoma mansoni, Table 3, read-out: Anti-schistosomal activity EC50 (μM) Schistosomula Motility) it was 1.35 µM; in data set [1] (Schistosoma mansoni, Table 3, read-out: Anti-schistosomal activity EC50 (μM) Schistosomula Phenotype), 1.89 µM. Moreover, the “Effect on adult worm motility at 3.15 μM” value in data set [2] (3.15 μM, lowest concentration tested) is recorded as “complete cessation of worm mobility”. The “Effect on adult worm motility at 12.5 and 6.25 μM” value in data set [2] (12.5 and 6.25 μM) is “particularly active”. In data set [3], this compound yielded a CC50 at 24 h of 12600 nM.

The pEC50 is −log10 of the EC50, conventionally taken in molar units. “N2, N3-bis(4-bromophenyl)quinoxaline-2,3-diamine [Compound 38, reference compound]”: the negative logarithm of the EC50 (pEC50) in data set [1] (72 h, read-out: EC50 on schistosomula (bounds and ranges given)) was less than 5.70. Moreover, the EC50 in data set [1] (Table 2, average of phenotype and motility EC50, 72 h, read-out: Activity on schistosomula (EC50, μM - 72 h) Average) is 2.44 µM; in data set [1] (Table 2, motility, 72 h, three replicate titrations (0.313–10 μM), read-out: Activity on schistosomula (EC50, μM - 72 h) M), 1.21 µM; in data set [1] (Table 2, phenotype, 72 h, three replicate titrations (0.313–10 μM), read-out: Activity on schistosomula (EC50, μM - 72 h) P) it was 3.67 µM; in data set [2] (Table 2, 72 h, titrations 0.0095–5 μM, WormassayGP2, read-out: Activity on adult worms (EC50, μM - 72 h) Motility) it was 0.162 µM. The Worm burden reduction in data set [4] (four per oral doses of 100 mg/kg, delivered every 4 h) is 53.4%; in data set [4] (single per oral dose of 400 mg/kg) it was 40.8%. Moreover, in data set [5], the “In vitro activity on S. mansoni” value is “sub micromolar range”.
